Results: ChEMBL document CHEMBL4507277

Assays:
[1] = system: Tyrosine-protein kinase ABL1 (Homo sapiens), P00519 [F317L]; settings: Compound concentration 1000.0 nM
[2] = system: Tyrosine-protein kinase ABL1 (Homo sapiens), P00519 [H396P]; settings: Compound concentration 1000.0 nM
[3] = system: Tyrosine-protein kinase ABL1 (Homo sapiens), P00519 [Q252H]; settings: Compound concentration 1000.0 nM
[4] = system: Tyrosine-protein kinase ABL1 (Homo sapiens), P00519 [T315I]; settings: Compound concentration 1000.0 nM
[5] = biological target: NUAK family SNF1-like kinase 1 (Homo sapiens) (UniProt O60285); settings: Compound concentration 1000.0 nM
Sequence of NUAK family SNF1-like kinase 1 (Homo sapiens) (O60285 whole entry): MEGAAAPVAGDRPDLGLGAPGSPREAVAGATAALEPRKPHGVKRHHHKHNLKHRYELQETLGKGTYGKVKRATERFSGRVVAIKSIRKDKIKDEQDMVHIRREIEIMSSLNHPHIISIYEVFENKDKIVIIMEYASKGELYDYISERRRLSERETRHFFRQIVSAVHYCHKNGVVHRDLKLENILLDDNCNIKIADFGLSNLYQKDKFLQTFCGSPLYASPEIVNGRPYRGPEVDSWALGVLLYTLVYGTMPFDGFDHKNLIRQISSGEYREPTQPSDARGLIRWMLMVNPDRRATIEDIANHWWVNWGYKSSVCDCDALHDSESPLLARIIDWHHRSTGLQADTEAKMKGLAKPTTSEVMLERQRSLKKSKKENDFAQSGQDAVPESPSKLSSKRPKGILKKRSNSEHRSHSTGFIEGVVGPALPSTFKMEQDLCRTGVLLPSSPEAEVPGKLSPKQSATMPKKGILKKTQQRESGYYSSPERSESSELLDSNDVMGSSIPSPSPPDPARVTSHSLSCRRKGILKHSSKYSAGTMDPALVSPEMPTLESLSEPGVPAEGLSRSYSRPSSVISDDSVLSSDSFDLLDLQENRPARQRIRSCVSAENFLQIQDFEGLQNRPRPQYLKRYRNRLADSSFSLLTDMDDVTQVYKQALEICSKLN

[6] = biological target: Cytoplasmic tyrosine-protein kinase BMX (Homo sapiens) (UniProt P51813); settings: Compound concentration 1000.0 nM
[7] = biological target: Protein-tyrosine kinase 6 (Homo sapiens) (UniProt Q13882); settings: Compound concentration 1000.0 nM
[8] = biological target: Calcium/calmodulin-dependent protein kinase type 1G (Homo sapiens) (UniProt Q96NX5); settings: Compound concentration 1000.0 nM
Sequence of Calcium/calmodulin-dependent protein kinase type 1G (Homo sapiens) (Q96NX5 whole entry): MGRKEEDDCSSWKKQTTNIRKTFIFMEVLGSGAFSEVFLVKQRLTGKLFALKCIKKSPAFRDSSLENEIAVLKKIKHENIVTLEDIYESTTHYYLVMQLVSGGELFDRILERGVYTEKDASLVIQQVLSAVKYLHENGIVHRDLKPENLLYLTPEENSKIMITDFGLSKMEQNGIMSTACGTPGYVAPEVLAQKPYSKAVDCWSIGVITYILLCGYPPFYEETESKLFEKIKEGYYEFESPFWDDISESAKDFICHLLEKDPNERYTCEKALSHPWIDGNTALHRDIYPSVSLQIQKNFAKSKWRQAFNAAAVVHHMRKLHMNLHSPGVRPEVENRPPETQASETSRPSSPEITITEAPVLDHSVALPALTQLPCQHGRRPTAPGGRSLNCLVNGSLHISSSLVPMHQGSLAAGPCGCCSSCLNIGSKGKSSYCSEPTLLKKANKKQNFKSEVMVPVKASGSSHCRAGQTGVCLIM

[9] = biological target: Cyclin-dependent kinase 7 (Homo sapiens) (UniProt P50613); settings: Compound concentration 1000.0 nM
[10] = biological target: Macrophage colony-stimulating factor 1 receptor (Homo sapiens) (UniProt P07333); settings: Compound concentration 1000.0 nM
Sequence of Macrophage colony-stimulating factor 1 receptor (Homo sapiens) (P07333 whole entry): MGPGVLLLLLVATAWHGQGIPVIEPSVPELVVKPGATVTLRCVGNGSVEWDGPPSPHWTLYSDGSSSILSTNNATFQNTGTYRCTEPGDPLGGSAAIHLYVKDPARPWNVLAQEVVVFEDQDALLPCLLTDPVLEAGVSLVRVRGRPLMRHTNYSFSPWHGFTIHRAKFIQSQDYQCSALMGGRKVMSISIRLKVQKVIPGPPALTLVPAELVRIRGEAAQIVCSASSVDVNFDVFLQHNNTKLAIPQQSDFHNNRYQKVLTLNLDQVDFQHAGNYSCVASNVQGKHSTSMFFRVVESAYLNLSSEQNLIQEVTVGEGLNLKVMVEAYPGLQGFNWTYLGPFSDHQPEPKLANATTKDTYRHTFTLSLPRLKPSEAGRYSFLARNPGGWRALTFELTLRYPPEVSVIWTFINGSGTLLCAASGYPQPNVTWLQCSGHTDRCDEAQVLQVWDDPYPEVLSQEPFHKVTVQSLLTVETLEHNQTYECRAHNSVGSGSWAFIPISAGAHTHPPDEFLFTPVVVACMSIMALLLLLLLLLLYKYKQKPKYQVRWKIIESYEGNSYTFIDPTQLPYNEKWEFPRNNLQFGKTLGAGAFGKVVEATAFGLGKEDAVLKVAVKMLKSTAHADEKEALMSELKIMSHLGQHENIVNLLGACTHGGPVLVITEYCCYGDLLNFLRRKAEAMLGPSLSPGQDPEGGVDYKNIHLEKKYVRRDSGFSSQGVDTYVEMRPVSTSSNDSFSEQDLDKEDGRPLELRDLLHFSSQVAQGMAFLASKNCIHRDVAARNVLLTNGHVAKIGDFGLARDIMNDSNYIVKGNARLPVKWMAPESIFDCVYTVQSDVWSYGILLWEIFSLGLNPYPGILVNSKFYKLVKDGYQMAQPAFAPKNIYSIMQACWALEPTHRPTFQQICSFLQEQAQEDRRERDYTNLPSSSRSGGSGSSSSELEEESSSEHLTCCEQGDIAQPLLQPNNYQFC

[11] = biological target: Macrophage colony-stimulating factor 1 receptor (Homo sapiens) (UniProt P07333); settings: Compound concentration 1000.0 nM; remark: listed apart in the source
[12] = biological target: Dual specificity tyrosine-phosphorylation-regulated kinase 1A (Homo sapiens) (UniProt Q13627); settings: Compound concentration 1000.0 nM
[13] = biological target: Dual specificity tyrosine-phosphorylation-regulated kinase 1B (Homo sapiens) (UniProt Q9Y463); settings: Compound concentration 1000.0 nM
Sequence of Dual specificity tyrosine-phosphorylation-regulated kinase 1B (Homo sapiens) (Q9Y463 whole entry, looked up): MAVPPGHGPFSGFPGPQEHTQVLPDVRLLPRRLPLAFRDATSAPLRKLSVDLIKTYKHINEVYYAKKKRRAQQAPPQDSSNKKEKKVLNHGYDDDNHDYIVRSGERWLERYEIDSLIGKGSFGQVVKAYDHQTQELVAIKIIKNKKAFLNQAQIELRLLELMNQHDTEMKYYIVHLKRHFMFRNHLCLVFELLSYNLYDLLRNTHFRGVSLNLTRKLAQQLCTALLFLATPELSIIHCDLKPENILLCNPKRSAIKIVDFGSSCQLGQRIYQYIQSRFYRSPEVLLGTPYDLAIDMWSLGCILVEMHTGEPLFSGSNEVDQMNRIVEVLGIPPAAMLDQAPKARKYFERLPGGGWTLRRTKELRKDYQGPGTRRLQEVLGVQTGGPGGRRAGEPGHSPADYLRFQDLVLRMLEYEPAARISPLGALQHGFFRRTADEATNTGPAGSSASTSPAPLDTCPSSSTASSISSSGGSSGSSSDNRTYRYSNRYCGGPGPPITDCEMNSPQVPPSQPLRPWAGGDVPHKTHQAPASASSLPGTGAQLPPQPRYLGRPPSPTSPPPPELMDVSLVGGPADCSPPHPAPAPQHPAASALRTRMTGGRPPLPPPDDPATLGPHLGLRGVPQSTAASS

[14] = biological target: Ephrin type-A receptor 6 (Homo sapiens) (UniProt Q9UF33); settings: Compound concentration 1000.0 nM
[15] = biological target: Mitogen-activated protein kinase 7 (Homo sapiens) (UniProt Q13164); settings: Compound concentration 1000.0 nM
[16] = biological target: Tyrosine-protein kinase Fgr (Homo sapiens) (UniProt P09769); settings: Compound concentration 1000.0 nM
[17] = biological target: Receptor-type tyrosine-protein kinase FLT3 (Homo sapiens) (UniProt P36888); settings: Compound concentration 1000.0 nM
[18] = biological target: Homeodomain-interacting protein kinase 4 (Homo sapiens) (UniProt Q8NE63); settings: Compound concentration 1000.0 nM
Sequence of Homeodomain-interacting protein kinase 4 (Homo sapiens) (Q8NE63 whole entry): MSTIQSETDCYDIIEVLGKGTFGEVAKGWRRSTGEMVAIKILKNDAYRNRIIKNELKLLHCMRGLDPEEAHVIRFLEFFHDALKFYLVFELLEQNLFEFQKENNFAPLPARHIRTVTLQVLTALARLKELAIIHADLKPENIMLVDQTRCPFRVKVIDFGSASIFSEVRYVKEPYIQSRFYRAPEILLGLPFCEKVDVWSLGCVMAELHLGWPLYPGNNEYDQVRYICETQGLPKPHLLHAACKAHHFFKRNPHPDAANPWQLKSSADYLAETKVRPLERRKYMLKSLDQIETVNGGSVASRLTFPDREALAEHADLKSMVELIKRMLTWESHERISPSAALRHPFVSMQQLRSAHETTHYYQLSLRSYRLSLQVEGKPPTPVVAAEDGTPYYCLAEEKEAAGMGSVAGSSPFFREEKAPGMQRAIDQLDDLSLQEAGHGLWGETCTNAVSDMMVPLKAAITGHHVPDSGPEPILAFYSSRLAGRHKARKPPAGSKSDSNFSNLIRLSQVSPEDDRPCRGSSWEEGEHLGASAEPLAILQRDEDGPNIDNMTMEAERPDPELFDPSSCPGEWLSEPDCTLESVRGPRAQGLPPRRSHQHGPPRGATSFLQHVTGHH

[19] = biological target: Mast/stem cell growth factor receptor Kit (Homo sapiens) (UniProt P10721); settings: Compound concentration 1000.0 nM
Sequence of Mast/stem cell growth factor receptor Kit (Homo sapiens) (P10721 whole entry): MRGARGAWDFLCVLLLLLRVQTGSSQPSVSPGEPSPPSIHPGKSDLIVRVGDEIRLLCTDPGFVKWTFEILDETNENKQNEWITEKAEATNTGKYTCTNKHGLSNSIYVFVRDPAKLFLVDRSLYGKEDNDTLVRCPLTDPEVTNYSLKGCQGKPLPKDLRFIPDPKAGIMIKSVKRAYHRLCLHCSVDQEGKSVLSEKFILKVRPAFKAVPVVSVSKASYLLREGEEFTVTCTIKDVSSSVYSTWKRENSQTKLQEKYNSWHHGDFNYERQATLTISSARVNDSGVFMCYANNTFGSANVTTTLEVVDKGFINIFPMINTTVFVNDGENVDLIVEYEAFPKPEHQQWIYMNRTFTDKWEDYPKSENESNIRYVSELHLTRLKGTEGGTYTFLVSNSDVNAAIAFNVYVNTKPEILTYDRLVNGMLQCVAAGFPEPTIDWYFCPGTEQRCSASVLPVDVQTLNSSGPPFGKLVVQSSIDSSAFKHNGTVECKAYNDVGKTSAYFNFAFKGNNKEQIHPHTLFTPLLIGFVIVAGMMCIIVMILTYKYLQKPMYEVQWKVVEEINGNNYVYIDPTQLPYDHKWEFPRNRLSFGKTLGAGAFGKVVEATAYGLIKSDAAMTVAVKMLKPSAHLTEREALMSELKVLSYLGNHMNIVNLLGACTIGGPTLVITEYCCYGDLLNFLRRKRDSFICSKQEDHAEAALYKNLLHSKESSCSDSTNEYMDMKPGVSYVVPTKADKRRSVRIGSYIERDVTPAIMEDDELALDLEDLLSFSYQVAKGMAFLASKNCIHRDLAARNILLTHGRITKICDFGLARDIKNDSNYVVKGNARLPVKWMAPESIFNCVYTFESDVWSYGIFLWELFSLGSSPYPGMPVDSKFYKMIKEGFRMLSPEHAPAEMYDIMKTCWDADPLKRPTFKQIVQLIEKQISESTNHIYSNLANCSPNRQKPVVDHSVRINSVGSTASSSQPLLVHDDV

[20] = biological target: Serine/threonine-protein kinase 10 (Homo sapiens) (UniProt O94804); settings: Compound concentration 1000.0 nM
[21] = biological target: Serine/threonine-protein kinase PAK 5 (Homo sapiens) (UniProt Q9P286); settings: Compound concentration 1000.0 nM
[22] = biological target: Cyclin-dependent kinase 15 (Homo sapiens) (UniProt Q96Q40); settings: Compound concentration 1000.0 nM
[23] = system: Phosphatidylinositol 4,5-bisphosphate 3-kinase catalytic subunit alpha isoform (Homo sapiens), P42336 [E545A]; settings: Compound concentration 1000.0 nM
[24] = system: Phosphatidylinositol 4,5-bisphosphate 3-kinase catalytic subunit alpha isoform (Homo sapiens), P42336 [H1047Y]; settings: Compound concentration 1000.0 nM
[25] = system: Proto-oncogene tyrosine-protein kinase receptor Ret (Homo sapiens), P07949 [V804L]; settings: Compound concentration 1000.0 nM
[26] = biological target: Ribosomal protein S6 kinase alpha-3 (Homo sapiens) (UniProt P51812); settings: Compound concentration 1000.0 nM
[27] = biological target: NUAK family SNF1-like kinase 2 (Homo sapiens) (UniProt Q9H093); settings: Compound concentration 1000.0 nM
Sequence of NUAK family SNF1-like kinase 2 (Homo sapiens) (Q9H093 whole entry): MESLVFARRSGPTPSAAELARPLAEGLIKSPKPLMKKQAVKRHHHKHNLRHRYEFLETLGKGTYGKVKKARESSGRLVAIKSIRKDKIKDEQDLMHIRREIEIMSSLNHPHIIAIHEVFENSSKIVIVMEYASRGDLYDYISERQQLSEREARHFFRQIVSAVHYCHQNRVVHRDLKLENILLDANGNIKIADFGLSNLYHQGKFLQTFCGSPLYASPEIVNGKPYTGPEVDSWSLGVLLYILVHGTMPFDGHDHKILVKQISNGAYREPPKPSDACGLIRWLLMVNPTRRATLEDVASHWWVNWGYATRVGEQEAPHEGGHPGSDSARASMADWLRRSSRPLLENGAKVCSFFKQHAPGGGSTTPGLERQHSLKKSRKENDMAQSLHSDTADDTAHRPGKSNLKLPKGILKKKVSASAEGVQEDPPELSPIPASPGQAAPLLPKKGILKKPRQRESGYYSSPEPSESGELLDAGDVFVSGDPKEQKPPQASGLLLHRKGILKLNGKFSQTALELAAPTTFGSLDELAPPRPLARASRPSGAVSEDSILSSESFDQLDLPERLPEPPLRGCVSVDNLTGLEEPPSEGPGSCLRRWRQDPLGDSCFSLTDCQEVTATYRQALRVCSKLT

[28] = biological target: SRSF protein kinase 1 (Homo sapiens) (UniProt Q96SB4); settings: Compound concentration 1000.0 nM
[29] = biological target: Serine/threonine-protein kinase 33 (Homo sapiens) (UniProt Q9BYT3); settings: Compound concentration 1000.0 nM
[30] = biological target: Serine/threonine-protein kinase TAO3 (Homo sapiens) (UniProt Q9H2K8); settings: Compound concentration 1000.0 nM
[31] = biological target: Testis-specific serine/threonine-protein kinase 1 (Homo sapiens) (UniProt Q9BXA7); settings: Compound concentration 1000.0 nM
[32] = biological target: Non-receptor tyrosine-protein kinase TYK2 (Homo sapiens) (UniProt P29597); settings: Compound concentration 1000.0 nM
[33] = biological target: Wee1-like protein kinase (Homo sapiens) (UniProt P30291); settings: Compound concentration 1000.0 nM
[34] = biological target: Wee1-like protein kinase 2 (Homo sapiens) (UniProt P0C1S8); settings: Compound concentration 1000.0 nM
[35] = biological target: Serine/threonine-protein kinase 32B (Homo sapiens) (UniProt Q9NY57); settings: Compound concentration 1000.0 nM
[36] = biological target: T1, D(4) dopamine receptor (Homo sapiens) (UniProt P21917); settings: Compound concentration 10.0 uM
T1 sequence (whole entry): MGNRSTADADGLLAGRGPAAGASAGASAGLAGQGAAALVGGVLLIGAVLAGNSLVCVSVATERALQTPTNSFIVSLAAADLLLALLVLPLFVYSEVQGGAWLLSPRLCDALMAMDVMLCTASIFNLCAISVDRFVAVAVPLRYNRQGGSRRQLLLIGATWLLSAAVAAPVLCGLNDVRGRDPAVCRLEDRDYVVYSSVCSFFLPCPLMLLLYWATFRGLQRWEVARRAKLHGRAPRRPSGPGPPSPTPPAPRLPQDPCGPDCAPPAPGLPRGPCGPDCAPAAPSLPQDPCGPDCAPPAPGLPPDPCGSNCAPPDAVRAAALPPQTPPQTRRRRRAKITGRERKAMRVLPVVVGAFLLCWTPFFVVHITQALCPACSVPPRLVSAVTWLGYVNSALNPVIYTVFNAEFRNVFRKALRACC

[37] = biological target: Sodium-dependent dopamine transporter (Homo sapiens) (UniProt Q01959); settings: Compound concentration 10.0 uM
[38] = biological target: Histamine H3 receptor (Homo sapiens) (UniProt Q9Y5N1); settings: Compound concentration 10.0 uM
[39] = biological target: Beta-2 adrenergic receptor (Homo sapiens) (UniProt P07550); settings: Compound concentration 10.0 uM

CCS(=O)(=O)c1cc2cc(C[C@@](O)(CC(C)(C)c3ccc(F)cc3C(N)=O)C(F)(F)F)[nH]c2cn1
inactive: residual activity [1] 90% | residual activity [2] 99% | residual activity [3] 92% | residual activity [4] 74% | residual activity [5] 77% | residual activity [6] 50% | residual activity [7] 97% | residual activity [8] 100% | residual activity [9] 99% | residual activity [10] 100% | residual activity [11] 94% | residual activity [12] 66% | residual activity [13] 100% | residual activity [14] 100% | residual activity [15] 81% | residual activity [16] 88% | residual activity [17] 100% | residual activity [18] 100% | residual activity [19] 100% | residual activity [20] 100% | residual activity [21] 100% | residual activity [22] 59% | residual activity [23] 99% | residual activity [24] 95% | residual activity [25] 96% | residual activity [26] 100% | residual activity [27] 84% | residual activity [28] 90% | residual activity [29] 91% | residual activity [30] 78% | residual activity [31] 96% | residual activity [32] 83% | residual activity [33] 100% | residual activity [34] 95% | residual activity [35] 100% | inhibition [36] 5.32% | inhibition [37] 2.58% | inhibition [38] 11.7% | inhibition [39] 15.2%

CCS(=O)(=O)c1cc2cc(C[C@](O)(CC(C)(C)c3ccc(F)cc3C(N)=O)C(F)(F)F)[nH]c2cn1
inactive: residual activity [1] 100% | residual activity [2] 100% | residual activity [3] 100% | residual activity [4] 85% | residual activity [5] 100% | residual activity [6] 74% | residual activity [7] 100% | residual activity [8] 100% | residual activity [9] 95% | residual activity [10] 100% | residual activity [11] 100% | residual activity [12] 100% | residual activity [13] 88% | residual activity [14] 100% | residual activity [15] 97% | residual activity [16] 100% | residual activity [17] 85% | residual activity [18] 100% | residual activity [19] 89% | residual activity [20] 100% | residual activity [21] 100% | residual activity [22] 88% | residual activity [23] 100% | residual activity [24] 100% | residual activity [25] 100% | residual activity [26] 93% | residual activity [27] 95% | residual activity [28] 83% | residual activity [29] 97% | residual activity [30] 86% | residual activity [31] 94% | residual activity [32] 93% | residual activity [33] 100% | residual activity [34] 100% | residual activity [35] 94% | inhibition [36] -7.41% | inhibition [37] -8.67% | inhibition [38] 11.7% | inhibition [39] 4.71%
